Assay results from the kinase profiling compilation of Christmann-Franck et al. (2016).

Key:
Assay in all cases: KINOMEscan competition binding
Conditions in all cases: compound 10.0 µM
DAPK3 (human) = DAPK3 (human) (UniProt O43293)
DMPK (human) = DMPK (human) (UniProt Q09013)
TAOK1 (human) = TAOK1 (human) (UniProt Q7L7X3)
PIP4K2B (human) = PIP4K2B (human) (UniProt P78356)
[1] = target: TYK2 JH2 pseudokinase (human) (UniProt P29597)
MAP2K4 (human) = MAP2K4 (human) (UniProt P45985)
MYLK4 (human) = MYLK4 (human) (UniProt Q86YV6)
CAMKK1 (human) = CAMKK1 (human) (UniProt Q8N5S9)
[2] = system: KIT (human), P10721 [V559D/T670I]
PRKD1 (human) = PRKD1 (human) (UniProt Q15139)
RPS6KA5 KD2 (human) = RPS6KA5 KD2 (human) (UniProt O75582)
PDGFRB (human) = PDGFRB (human) (UniProt P09619)
CDK16 (human) = CDK16 (human) (UniProt Q00536)
PRKD3 (human) = PRKD3 (human) (UniProt O94806)
CLK1 (human) = CLK1 (human) (UniProt P49759)
STK17A (human) = STK17A (human) (UniProt Q9UEE5)
[3] = system: FLT3 (human), P36888 [K663Q]
[4] = target: JAK1 JH2 pseudokinase (human) (UniProt P23458)
HIPK1 (human) = HIPK1 (human) (UniProt Q86Z02)
[5] = system: KIT (human), P10721 [D816V]
PIP5K1A (human) = PIP5K1A (human) (UniProt Q99755)
[6] = system: EGFR (human), P00533 [G719S]
STK17B (human) = STK17B (human) (UniProt O94768)
RPS6KA1 KD2 (human) = RPS6KA1 KD2 (human) (UniProt Q15418)
[7] = system: EGFR (human), P00533 [747-751 del / S ins]
[8] = system: FLT3 (human), P36888 [N841I]
CLK3 (human) = CLK3 (human) (UniProt P49761)
CSNK1G3 (human) = CSNK1G3 (human) (UniProt Q9Y6M4)
CHUK (human) = CHUK (human) (UniProt O15111)
RIOK1 (human) = RIOK1 (human) (UniProt Q9BRS2)
RPS6KA2 KD2 (human) = RPS6KA2 KD2 (human) (UniProt Q15349)
[9] = target: JAK3 JH1 catalytic (human) (UniProt P52333)
CSNK1E (human) = CSNK1E (human) (UniProt P49674)
RIPK4 (human) = RIPK4 (human) (UniProt P57078)
[10] = system: FLT3 (human), P36888 [D835H]
MYLK (human) = MYLK (human) (UniProt Q15746)
PIK3CG (human) = PIK3CG (human) (UniProt P48736)
MAP3K5 (human) = MAP3K5 (human) (UniProt Q99683)
STK33 (human) = STK33 (human) (UniProt Q9BYT3)
DAPK2 (human) = DAPK2 (human) (UniProt Q9UIK4)
[11] = system: FLT3 (human), P36888 [ITD]
MAP4K4 (human) = MAP4K4 (human) (UniProt O95819)

Chain of PRKD3 (human) (O94806 whole entry, looked up): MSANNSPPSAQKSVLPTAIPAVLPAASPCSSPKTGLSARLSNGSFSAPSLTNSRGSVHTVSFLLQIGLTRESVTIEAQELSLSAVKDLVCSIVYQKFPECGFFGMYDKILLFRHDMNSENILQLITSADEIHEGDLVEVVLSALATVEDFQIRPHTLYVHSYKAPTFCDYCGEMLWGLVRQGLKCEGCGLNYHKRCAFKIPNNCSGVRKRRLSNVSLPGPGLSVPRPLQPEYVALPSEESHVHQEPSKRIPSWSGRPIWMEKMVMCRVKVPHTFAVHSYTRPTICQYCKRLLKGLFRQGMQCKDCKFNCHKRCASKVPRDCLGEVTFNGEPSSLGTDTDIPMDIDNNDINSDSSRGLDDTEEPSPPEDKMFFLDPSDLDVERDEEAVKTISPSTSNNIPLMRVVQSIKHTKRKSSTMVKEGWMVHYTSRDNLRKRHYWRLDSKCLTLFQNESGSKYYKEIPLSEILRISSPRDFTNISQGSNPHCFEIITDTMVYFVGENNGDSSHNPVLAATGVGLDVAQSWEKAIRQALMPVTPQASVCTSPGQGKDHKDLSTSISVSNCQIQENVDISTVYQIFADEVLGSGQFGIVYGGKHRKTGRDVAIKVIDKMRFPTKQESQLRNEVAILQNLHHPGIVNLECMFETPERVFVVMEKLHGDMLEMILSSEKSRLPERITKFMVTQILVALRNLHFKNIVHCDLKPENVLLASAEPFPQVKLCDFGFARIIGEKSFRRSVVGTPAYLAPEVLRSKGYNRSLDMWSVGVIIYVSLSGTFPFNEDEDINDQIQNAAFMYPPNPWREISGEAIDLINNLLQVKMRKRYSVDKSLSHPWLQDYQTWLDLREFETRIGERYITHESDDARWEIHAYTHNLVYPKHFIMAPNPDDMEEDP
Chain of CDK16 (human) (Q00536 whole entry, looked up): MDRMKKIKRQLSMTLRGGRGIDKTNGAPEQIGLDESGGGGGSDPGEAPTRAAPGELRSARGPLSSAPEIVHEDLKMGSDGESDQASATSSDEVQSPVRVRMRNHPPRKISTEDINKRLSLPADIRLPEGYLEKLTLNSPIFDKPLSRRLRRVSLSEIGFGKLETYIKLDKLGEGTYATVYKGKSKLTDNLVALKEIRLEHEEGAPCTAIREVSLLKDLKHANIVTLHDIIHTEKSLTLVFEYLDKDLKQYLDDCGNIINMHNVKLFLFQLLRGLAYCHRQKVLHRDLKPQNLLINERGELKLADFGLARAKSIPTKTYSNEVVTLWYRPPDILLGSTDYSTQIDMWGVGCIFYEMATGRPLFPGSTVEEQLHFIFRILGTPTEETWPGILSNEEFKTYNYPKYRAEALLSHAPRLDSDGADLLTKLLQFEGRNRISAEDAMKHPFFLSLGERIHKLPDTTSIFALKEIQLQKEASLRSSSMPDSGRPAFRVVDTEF
Chain of KIT (human), P10721 [V559D/T670I] (P10721 whole entry V559D/T670I, looked up): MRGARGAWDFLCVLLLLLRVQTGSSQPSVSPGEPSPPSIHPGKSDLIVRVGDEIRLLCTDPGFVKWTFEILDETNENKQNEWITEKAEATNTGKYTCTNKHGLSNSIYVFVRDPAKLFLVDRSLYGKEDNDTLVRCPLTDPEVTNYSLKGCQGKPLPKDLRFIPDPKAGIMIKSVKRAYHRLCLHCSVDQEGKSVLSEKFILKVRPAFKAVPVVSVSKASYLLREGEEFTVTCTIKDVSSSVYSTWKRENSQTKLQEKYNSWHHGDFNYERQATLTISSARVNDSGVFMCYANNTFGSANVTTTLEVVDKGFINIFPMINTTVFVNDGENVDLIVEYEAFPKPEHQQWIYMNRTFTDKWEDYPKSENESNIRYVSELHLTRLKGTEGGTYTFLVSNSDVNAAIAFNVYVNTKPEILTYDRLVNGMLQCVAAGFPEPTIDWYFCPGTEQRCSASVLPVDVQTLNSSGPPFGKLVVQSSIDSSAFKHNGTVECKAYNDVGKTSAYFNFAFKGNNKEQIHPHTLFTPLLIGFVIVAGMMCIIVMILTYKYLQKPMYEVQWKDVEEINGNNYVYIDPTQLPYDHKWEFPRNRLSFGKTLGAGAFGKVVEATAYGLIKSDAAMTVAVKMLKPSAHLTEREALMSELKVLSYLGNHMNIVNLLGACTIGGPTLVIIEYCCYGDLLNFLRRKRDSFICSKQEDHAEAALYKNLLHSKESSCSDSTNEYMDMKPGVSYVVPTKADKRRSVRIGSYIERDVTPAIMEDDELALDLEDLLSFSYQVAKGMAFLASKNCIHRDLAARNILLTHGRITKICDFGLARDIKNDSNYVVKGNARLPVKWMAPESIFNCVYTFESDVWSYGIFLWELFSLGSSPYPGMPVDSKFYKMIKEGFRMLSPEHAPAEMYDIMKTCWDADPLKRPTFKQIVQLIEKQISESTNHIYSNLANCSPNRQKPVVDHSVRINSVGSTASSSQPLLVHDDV
Chain of MAP3K5 (human) (Q99683 whole entry, looked up): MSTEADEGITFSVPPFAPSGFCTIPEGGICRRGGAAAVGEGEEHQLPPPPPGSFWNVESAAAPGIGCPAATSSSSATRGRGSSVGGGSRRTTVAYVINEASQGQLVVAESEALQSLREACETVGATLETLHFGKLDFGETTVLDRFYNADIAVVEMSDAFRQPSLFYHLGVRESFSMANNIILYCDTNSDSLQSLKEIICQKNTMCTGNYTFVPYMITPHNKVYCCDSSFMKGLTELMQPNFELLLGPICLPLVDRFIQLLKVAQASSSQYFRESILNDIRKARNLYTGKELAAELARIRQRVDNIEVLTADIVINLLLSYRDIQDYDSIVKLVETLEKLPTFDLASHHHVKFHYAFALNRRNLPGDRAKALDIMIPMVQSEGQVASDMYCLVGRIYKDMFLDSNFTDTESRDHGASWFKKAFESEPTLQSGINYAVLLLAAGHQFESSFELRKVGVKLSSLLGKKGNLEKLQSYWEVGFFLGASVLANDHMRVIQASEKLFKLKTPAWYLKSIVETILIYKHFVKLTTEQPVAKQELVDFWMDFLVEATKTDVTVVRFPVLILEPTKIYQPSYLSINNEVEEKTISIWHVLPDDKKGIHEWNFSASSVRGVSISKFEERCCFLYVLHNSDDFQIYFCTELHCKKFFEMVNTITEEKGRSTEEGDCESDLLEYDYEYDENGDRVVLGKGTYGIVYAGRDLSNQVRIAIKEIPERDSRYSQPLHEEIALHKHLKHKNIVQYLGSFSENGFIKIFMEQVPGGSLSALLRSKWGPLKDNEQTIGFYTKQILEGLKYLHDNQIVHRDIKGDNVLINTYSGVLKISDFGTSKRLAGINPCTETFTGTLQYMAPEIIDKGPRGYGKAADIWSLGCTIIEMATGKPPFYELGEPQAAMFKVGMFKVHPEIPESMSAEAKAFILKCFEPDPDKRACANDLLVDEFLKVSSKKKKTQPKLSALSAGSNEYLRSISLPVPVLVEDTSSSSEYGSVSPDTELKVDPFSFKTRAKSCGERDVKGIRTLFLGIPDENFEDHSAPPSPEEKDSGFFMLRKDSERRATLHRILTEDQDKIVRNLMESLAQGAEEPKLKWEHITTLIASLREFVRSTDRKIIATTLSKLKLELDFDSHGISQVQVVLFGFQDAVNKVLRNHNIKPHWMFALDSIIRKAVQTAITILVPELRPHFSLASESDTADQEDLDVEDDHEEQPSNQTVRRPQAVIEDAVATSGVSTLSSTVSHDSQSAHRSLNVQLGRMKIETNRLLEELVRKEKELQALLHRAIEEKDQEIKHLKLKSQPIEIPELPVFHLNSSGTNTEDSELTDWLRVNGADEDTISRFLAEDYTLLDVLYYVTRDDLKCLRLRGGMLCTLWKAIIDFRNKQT
Chain of JAK1 JH2 pseudokinase (human) (P23458 whole entry, looked up): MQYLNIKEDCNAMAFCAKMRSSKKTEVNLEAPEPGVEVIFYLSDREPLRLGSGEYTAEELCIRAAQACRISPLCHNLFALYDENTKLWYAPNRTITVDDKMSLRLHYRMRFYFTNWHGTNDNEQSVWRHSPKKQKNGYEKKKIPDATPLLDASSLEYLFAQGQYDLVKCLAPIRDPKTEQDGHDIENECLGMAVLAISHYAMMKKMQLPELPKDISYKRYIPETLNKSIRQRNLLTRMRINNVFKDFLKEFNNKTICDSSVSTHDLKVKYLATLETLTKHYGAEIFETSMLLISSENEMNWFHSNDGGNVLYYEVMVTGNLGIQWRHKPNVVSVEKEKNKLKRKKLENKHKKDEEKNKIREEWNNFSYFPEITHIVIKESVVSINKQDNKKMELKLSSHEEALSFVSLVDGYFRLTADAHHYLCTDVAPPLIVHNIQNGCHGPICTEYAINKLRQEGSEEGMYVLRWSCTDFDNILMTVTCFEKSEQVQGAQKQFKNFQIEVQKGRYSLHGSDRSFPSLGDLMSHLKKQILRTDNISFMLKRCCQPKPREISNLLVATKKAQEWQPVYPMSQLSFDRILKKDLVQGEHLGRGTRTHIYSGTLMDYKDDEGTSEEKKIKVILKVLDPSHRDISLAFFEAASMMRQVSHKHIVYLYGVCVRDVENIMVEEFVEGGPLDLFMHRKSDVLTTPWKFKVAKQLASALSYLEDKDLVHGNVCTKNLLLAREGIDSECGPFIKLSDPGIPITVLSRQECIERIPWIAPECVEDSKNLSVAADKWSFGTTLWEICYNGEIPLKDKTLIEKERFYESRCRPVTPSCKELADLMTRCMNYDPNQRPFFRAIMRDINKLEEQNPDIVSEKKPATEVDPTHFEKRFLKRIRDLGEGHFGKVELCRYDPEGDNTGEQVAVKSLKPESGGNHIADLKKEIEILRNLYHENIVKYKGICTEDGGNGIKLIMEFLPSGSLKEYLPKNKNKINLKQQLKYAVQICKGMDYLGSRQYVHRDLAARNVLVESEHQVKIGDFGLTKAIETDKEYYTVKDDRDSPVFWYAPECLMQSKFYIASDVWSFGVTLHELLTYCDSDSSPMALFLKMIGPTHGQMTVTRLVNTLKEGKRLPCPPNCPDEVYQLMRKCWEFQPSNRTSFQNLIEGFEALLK
Chain of KIT (human), P10721 [D816V] (P10721 whole entry D816V, looked up): as the sequence (P10721 whole entry V559D/T670I, looked up) above, with D559V, I670T, D816V counted along it

**Q.** For `COc1cc(N2CCN(C)CC2)ccc1Nc1ncc2c(n1)Nc1ccccc1NC2=O`, which kinase still bound, per cent of control (DAPK3 (human)) is on record?
**A.** 90%

**Q.** What about the kinase still bound, per cent of control (DMPK (human)) of the same compound?
**A.** 91%

**Q.** What about the kinase still bound, per cent of control (TAOK1 (human)) of the same compound?
**A.** 2.9%

**Q.** And the kinase still bound, per cent of control (PIP4K2B (human))?
**A.** 74%

**Q.** What about the kinase still bound, per cent of control [1] of the same compound?
**A.** 1%

**Q.** And the kinase still bound, per cent of control (MAP2K4 (human))?
**A.** 93%

**Q.** What about the kinase still bound, per cent of control (MYLK4 (human)) of the same compound?
**A.** 100%

**Q.** What about the kinase still bound, per cent of control (CAMKK1 (human)) of the same compound?
**A.** 40%

**Q.** What about the kinase still bound, per cent of control [2] of the same compound?
**A.** 59%

**Q.** What about the kinase still bound, per cent of control (PRKD1 (human)) of the same compound?
**A.** 64%

**Q.** And the kinase still bound, per cent of control (RPS6KA5 KD2 (human))?
**A.** 92%

**Q.** And the kinase still bound, per cent of control (PDGFRB (human))?
**A.** 13%

**Q.** And the kinase still bound, per cent of control (CDK16 (human))?
**A.** 94%

**Q.** And the kinase still bound, per cent of control (PRKD3 (human))?
**A.** 66%

**Q.** What about the kinase still bound, per cent of control (CLK1 (human)) of the same compound?
**A.** 100%

**Q.** What about the kinase still bound, per cent of control (STK17A (human)) of the same compound?
**A.** 62%

**Q.** What about the kinase still bound, per cent of control [3] of the same compound?
**A.** 75%

**Q.** What about the kinase still bound, per cent of control [4] of the same compound?
**A.** 32%

**Q.** What about the kinase still bound, per cent of control (HIPK1 (human)) of the same compound?
**A.** 45%

**Q.** And the kinase still bound, per cent of control [5]?
**A.** 46%

**Q.** And the kinase still bound, per cent of control (PIP5K1A (human))?
**A.** 47%

**Q.** What about the kinase still bound, per cent of control [6] of the same compound?
**A.** 48%

**Q.** What about the kinase still bound, per cent of control (STK17B (human)) of the same compound?
**A.** 93%

**Q.** What about the kinase still bound, per cent of control (RPS6KA1 KD2 (human)) of the same compound?
**A.** 43%

**Q.** And the kinase still bound, per cent of control [7]?
**A.** 62%

**Q.** What about the kinase still bound, per cent of control [8] of the same compound?
**A.** 25%

**Q.** What about the kinase still bound, per cent of control (CLK3 (human)) of the same compound?
**A.** 100%

**Q.** And the kinase still bound, per cent of control (CSNK1G3 (human))?
**A.** 96%

**Q.** And the kinase still bound, per cent of control (CHUK (human))?
**A.** 67%

**Q.** And the kinase still bound, per cent of control (RIOK1 (human))?
**A.** 67%

**Q.** What about the kinase still bound, per cent of control (RPS6KA2 KD2 (human)) of the same compound?
**A.** 80%

**Q.** And the kinase still bound, per cent of control [9]?
**A.** 92%

**Q.** And the kinase still bound, per cent of control (CSNK1E (human))?
**A.** 59%

**Q.** And the kinase still bound, per cent of control (RIPK4 (human))?
**A.** 100%

**Q.** And the kinase still bound, per cent of control [10]?
**A.** 20%

**Q.** What about the kinase still bound, per cent of control (MYLK (human)) of the same compound?
**A.** 100%

**Q.** What about the kinase still bound, per cent of control (PIK3CG (human)) of the same compound?
**A.** 100%

**Q.** And the kinase still bound, per cent of control (MAP3K5 (human))?
**A.** 100%

**Q.** What about the kinase still bound, per cent of control (STK33 (human)) of the same compound?
**A.** 51%

**Q.** And the kinase still bound, per cent of control (DAPK2 (human))?
**A.** 95%

**Q.** What about the kinase still bound, per cent of control [11] of the same compound?
**A.** 63%

**Q.** What about the kinase still bound, per cent of control (MAP4K4 (human)) of the same compound?
**A.** 86%

**Q.** `COc1cc(N2CCC(O)CC2)ccc1Nc1ncc2c(n1)N1CCc3cccc(c31)C(=O)N2C` was tested. Which kinase still bound, per cent of control (DAPK3 (human)) did it give?
**A.** 37%

**Q.** And the kinase still bound, per cent of control (DMPK (human))?
**A.** 65%

**Q.** What about the kinase still bound, per cent of control (TAOK1 (human)) of the same compound?
**A.** 60%

**Q.** What about the kinase still bound, per cent of control (PIP4K2B (human)) of the same compound?
**A.** 100%

**Q.** What about the kinase still bound, per cent of control [1] of the same compound?
**A.** 70%

**Q.** And the kinase still bound, per cent of control (MAP2K4 (human))?
**A.** 82%

**Q.** And the kinase still bound, per cent of control (MYLK4 (human))?
**A.** 100%

**Q.** What about the kinase still bound, per cent of control (CAMKK1 (human)) of the same compound?
**A.** 77%

**Q.** What about the kinase still bound, per cent of control [2] of the same compound?
**A.** 79%

**Q.** And the kinase still bound, per cent of control (PRKD1 (human))?
**A.** 12%

**Q.** And the kinase still bound, per cent of control (RPS6KA5 KD2 (human))?
**A.** 62%

**Q.** What about the kinase still bound, per cent of control (PDGFRB (human)) of the same compound?
**A.** 87%

**Q.** What about the kinase still bound, per cent of control (CDK16 (human)) of the same compound?
**A.** 94%

**Q.** What about the kinase still bound, per cent of control (PRKD3 (human)) of the same compound?
**A.** 22%

**Q.** And the kinase still bound, per cent of control (CLK1 (human))?
**A.** 73%

**Q.** And the kinase still bound, per cent of control (STK17A (human))?
**A.** 100%

**Q.** And the kinase still bound, per cent of control [3]?
**A.** 96%

**Q.** What about the kinase still bound, per cent of control [4] of the same compound?
**A.** 70%

**Q.** What about the kinase still bound, per cent of control (HIPK1 (human)) of the same compound?
**A.** 73%

**Q.** And the kinase still bound, per cent of control [5]?
**A.** 76%

**Q.** And the kinase still bound, per cent of control (PIP5K1A (human))?
**A.** 91%

**Q.** And the kinase still bound, per cent of control [6]?
**A.** 76%

**Q.** And the kinase still bound, per cent of control (STK17B (human))?
**A.** 100%

**Q.** And the kinase still bound, per cent of control (RPS6KA1 KD2 (human))?
**A.** 8%

**Q.** And the kinase still bound, per cent of control [7]?
**A.** 64%

**Q.** What about the kinase still bound, per cent of control [8] of the same compound?
**A.** 93%

**Q.** And the kinase still bound, per cent of control (CLK3 (human))?
**A.** 100%

**Q.** And the kinase still bound, per cent of control (CSNK1G3 (human))?
**A.** 90%

**Q.** And the kinase still bound, per cent of control (CHUK (human))?
**A.** 79%

**Q.** And the kinase still bound, per cent of control (RIOK1 (human))?
**A.** 100%

**Q.** What about the kinase still bound, per cent of control (RPS6KA2 KD2 (human)) of the same compound?
**A.** 23%

**Q.** What about the kinase still bound, per cent of control [9] of the same compound?
**A.** 86%

**Q.** And the kinase still bound, per cent of control (CSNK1E (human))?
**A.** 92%

**Q.** What about the kinase still bound, per cent of control (RIPK4 (human)) of the same compound?
**A.** 79%

**Q.** And the kinase still bound, per cent of control [10]?
**A.** 73%

**Q.** What about the kinase still bound, per cent of control (MYLK (human)) of the same compound?
**A.** 16%

**Q.** What about the kinase still bound, per cent of control (PIK3CG (human)) of the same compound?
**A.** 28%

**Q.** What about the kinase still bound, per cent of control (MAP3K5 (human)) of the same compound?
**A.** 100%

**Q.** What about the kinase still bound, per cent of control (STK33 (human)) of the same compound?
**A.** 3.3%

**Q.** What about the kinase still bound, per cent of control (DAPK2 (human)) of the same compound?
**A.** 36%

**Q.** And the kinase still bound, per cent of control [11]?
**A.** 100%

**Q.** And the kinase still bound, per cent of control (MAP4K4 (human))?
**A.** 57%
